Like-named read-outs stand apart in the source and are kept apart here.
Assay: Part 1 (SAD): urine pharmacokinetics (amount excreted, renal clearance) after a single oral dose of KAR5585
Format: in vivo, human
Details: for CL renal: human
Method: Renal clearance of KAR5417 was calculated from the area under the plasma time concentration curve (AUC0-96) for KAR5417 and the amount of KAR5417 recovered in urine (Table 21).

[1] = KAR5585 in urine, 100 mg KAR5585 single oral dose, mean
[2] = KAR5585 in urine, 200 mg KAR5585 single oral dose, mean
[3] = KAR5585 in urine, 400 mg (Fasted) KAR5585 single oral dose, mean
[4] = KAR5585 in urine, 400 mg (Fed) KAR5585 single oral dose, mean
[5] = KAR5585 in urine, 700 mg KAR5585 single oral dose, mean

Structure (SMILES): Nc1nc(O[C@H](c2ccc(Cl)cc2-c2ccccc2)C(F)(F)F)cc(N2CCC3(CC2)CN[C@H](C(=O)O)C3)n1 [KAR5417, (S)-8-(2-amino-6-((R)-1-(5-chloro-[1,1T-biphenyl]-2-yl)-2,2,2-trifluoroeth-oxy)pyrimidin-4-yl)-2,8-diazaspiro[4.5]decane-3-carboxylic acid]
- highest amount excreted in urine (400 mg fed Cohort (Cohort 3B)): 0.331 % of the dose
- Amount Excreted (Ae) (KAR5417 in urine, 100 mg KAR5585 single oral dose, mean): 233 µg
- Total Excreted (%) (KAR5417 in urine, 100 mg KAR5585 single oral dose, mean, assuming complete conversion of KAR5585 to KAR5417): 0.245%
- Amount Excreted (Ae) (KAR5417 in urine, 200 mg KAR5585 single oral dose, mean): 211 µg
- Total Excreted (%) (KAR5417 in urine, 200 mg KAR5585 single oral dose, mean, assuming complete conversion of KAR5585 to KAR5417): 0.111%
- Amount Excreted (Ae) (KAR5417 in urine, 400 mg (fasted) KAR5585 single oral dose, mean): 769 µg
- Total Excreted (%) (KAR5417 in urine, 400 mg (fasted) KAR5585 single oral dose, mean, assuming complete conversion of KAR5585 to KAR5417): 0.202%
- Amount Excreted (Ae) (KAR5417 in urine, 400 mg (fed) KAR5585 single oral dose, mean): 1260 µg
- Total Excreted (%) (KAR5417 in urine, 400 mg (fed) KAR5585 single oral dose, mean, assuming complete conversion of KAR5585 to KAR5417): 0.331%
- Amount Excreted (Ae) (KAR5417 in urine, 700 mg KAR5585 single oral dose, mean): 998 µg
- Total Excreted (%) (KAR5417 in urine, 700 mg KAR5585 single oral dose, mean, assuming complete conversion of KAR5585 to KAR5417): 0.150%
- Amount Excreted (Ae) (KAR5417 in urine, 1200 mg KAR5585 single oral dose, mean): 1170 µg
- Total Excreted (%) (KAR5417 in urine, 1200 mg KAR5585 single oral dose, mean, assuming complete conversion of KAR5585 to KAR5417): 0.102%
- Amount Excreted (Ae) (KAR5417 in urine, 2000 mg KAR5585 single oral dose, mean): 2130 µg
- Total Excreted (%) (KAR5417 in urine, 2000 mg KAR5585 single oral dose, mean, assuming complete conversion of KAR5585 to KAR5417): 0.112%
- CL renal (plasma and urine, oral, from plasma AUC0-96 and amount recovered in urine, read-out: Renal clearance, range across doses): 2.62 to 4.93 mL/min
- CL renal (urine and plasma, po, 100 mg, KAR5417, 100 mg KAR5585 single oral dose, mean, read-out: CLR (converted)): 4.93 mL/min
- CL renal (urine and plasma, po, 200 mg, KAR5417, 200 mg KAR5585 single oral dose, mean, read-out: CLR (converted)): 2.67 mL/min
- CL renal (urine and plasma, po, 400 mg, KAR5417, 400 mg (fasted) KAR5585 single oral dose, mean, read-out: CLR (converted)): 3.62 mL/min
- CL renal (urine and plasma, po, 400 mg, KAR5417, 400 mg (fed) KAR5585 single oral dose, mean, read-out: CLR (converted)): 3.18 mL/min
- CL renal (urine and plasma, po, 700 mg, KAR5417, 700 mg KAR5585 single oral dose, mean, read-out: CLR (converted)): 3.18 mL/min
- CL renal (urine and plasma, po, 1200 mg, KAR5417, 1200 mg KAR5585 single oral dose, mean, read-out: CLR (converted)): 2.62 mL/min
- CL renal (urine and plasma, po, 2000 mg, KAR5417, 2000 mg KAR5585 single oral dose, mean, read-out: CLR (converted)): 3.43 mL/min

Structure (SMILES): CCOC(=O)[C@@H]1CC2(CCN(c3cc(O[C@H](c4ccc(Cl)cc4-c4ccccc4)C(F)(F)F)nc(N)n3)CC2)CN1 [KAR5585, (S)-ethyl 8-(2-amino-6-((R)-1-(5-chloro-[1,1′-biphenyl]-2-yl)-2,2,2-trifluoroethoxy)pyrimidin-4-yl)-2,8-diazaspiro[4.5]decane-3-carboxylate]
- Amount Excreted (Ae) [1]: 0 µg
- Total Excreted (%) [1]: 0%
- Amount Excreted (Ae) [2]: 0 µg
- Total Excreted (%) [2]: 0%
- Amount Excreted (Ae) [3]: 13.8 µg
- Total Excreted (%) [3]: 0.00346%
- Amount Excreted (Ae) [4]: 0 µg
- Total Excreted (%) [4]: 0%
- Amount Excreted (Ae) [5]: 0 µg
- Total Excreted (%) [5]: 0%
- Amount Excreted (Ae) (KAR5585 in urine, 2000 mg KAR5585 single oral dose, mean): 1.50 µg
- CL renal (urine and plasma, po, 2000 mg, KAR5585, 2000 mg KAR5585 single oral dose, mean, read-out: CLR (converted)): 0.0383 mL/min

Reference: patent US20240041877A1, “DOSAGE REGIME AND METHOD FOR TREATING PULMONARY ARTERIAL HYPERTENSION” (Altavant Sciences GmbH, priority 2019, published 2024)
